Values joined by “and” are separate entries in the source; they are usually repeats but may differ in a detail not shown here. Equal values may be shown once. Read-outs that look alike come from different tables or passages of the source. One block for each compound: values may come before it.
How the values were obtained:
[1] = target: human NTSR1 (Homo sapiens, UniProt P30989); experiment: NTSR1 competition binding, membranes of CHO cells stably expressing human NTSR1, [3H]neurotensin; settings: [3H]neurotensin 0.50 nM, mean ± SEM ([natRe]2: ± SD, n = 2)
human NTSR1, sequence (P30989 whole entry): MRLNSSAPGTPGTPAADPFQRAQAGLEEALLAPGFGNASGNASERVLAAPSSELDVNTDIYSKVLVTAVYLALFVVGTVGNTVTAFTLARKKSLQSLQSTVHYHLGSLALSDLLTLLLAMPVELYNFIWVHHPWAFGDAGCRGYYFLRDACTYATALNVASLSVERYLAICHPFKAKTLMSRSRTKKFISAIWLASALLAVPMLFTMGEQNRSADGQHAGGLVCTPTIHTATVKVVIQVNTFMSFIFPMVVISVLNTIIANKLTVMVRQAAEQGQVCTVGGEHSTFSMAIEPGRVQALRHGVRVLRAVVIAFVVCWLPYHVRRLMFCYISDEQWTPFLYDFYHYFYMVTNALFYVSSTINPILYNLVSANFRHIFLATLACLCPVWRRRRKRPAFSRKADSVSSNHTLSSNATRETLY
Procedure: (§1) Radioligand binding experiments with the NTSR1 and NTSR2 receptor subtypes were performed as described previously. […] NTSR2 binding was measured using homogenates of membranes from HEK 293T cells, which were transiently transfected with DNA encoding the human NTSR2 (cDNA Resource Center, Bloomsberg, PA, USA) using the Mirus TransIT-293 transfection reagent (Peqlab, Erlangen, Germany). […] Nonspecific binding was determined in the presence of 10 μM NT(8-13), protein concentration was determined by the method of Lowry using bovine serum albumin as a standard. A data analysis of the radioligand displacement curves was accomplished by non-linear regression analysis using the algorithms in PRISM 9.0 (GraphPad Software, San Diego, CA, USA). EC50 values derived from the resulting dose response curves were transformed into the corresponding Ki values applying the equation of Cheng and Prusoff.

[2] = target: T1, human NTSR2 (Homo sapiens, UniProt O95665); experiment: NTSR2 competition binding, membranes of transiently transfected HEK 293T cells, [3H]NT(8-13); settings: human NTSR2, HEK 293T membranes, [3H]NT(8-13) 0.50 nM; mean ± SEM
T1 construct: host or cells: HEK 293T cells, transient transfection
T1 sequence (O95665 whole entry): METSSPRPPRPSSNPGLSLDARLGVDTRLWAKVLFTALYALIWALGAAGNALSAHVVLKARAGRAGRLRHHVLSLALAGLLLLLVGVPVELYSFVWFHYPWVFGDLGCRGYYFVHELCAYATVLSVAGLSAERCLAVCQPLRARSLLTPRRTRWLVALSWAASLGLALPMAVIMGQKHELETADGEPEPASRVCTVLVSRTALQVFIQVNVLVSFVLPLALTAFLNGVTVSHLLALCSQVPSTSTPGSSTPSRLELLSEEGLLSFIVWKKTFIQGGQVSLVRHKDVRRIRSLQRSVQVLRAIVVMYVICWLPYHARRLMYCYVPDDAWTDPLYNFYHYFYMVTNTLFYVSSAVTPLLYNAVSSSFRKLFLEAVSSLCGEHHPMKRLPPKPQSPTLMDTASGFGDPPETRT
Procedure: as §1

[3] = tested on: NTSR1-positive HT-29 cells; experiment: Competitive cellular uptake assay; assay type: cell-based; settings: Homo sapiens, 37 °C, 1 h
Procedure: For the determination of the IC50 values, 8–10 concentrations of FAUC468 were used. The HT-29 cells were seeded on the day of the experiment in a 96-well-plate (~500.000 cells per well in 200 µL cell medium) and were incubated in a humidified atmosphere at 37 °C containing 5% CO2. Subsequently, the 96-well-plate was centrifuged at 850 rpm for 2 min following aspiration of the cell medium. The cells were washed with cell medium (200 µL), the plate was centrifuged at 850 rpm for 2 min, and the supernatant was aspirated. The incubation solutions (0.009–900 nM FAUC468 in 90 µL cell medium per well) and the respective radiotracer (10 µL, 100 kBq per well) were given to the wells, and the plates were incubated at 37 °C for 1 h. After the incubation time, the plate was centrifuged at 850 rpm for 2 min. The supernatant was removed, followed by two washing steps with the cell medium (200 µL) and PBS (200 µL). Sodium hydroxide solution (200 µL, 2 M, 37 °C) was added, and after 7 min, solutions of the cell homogenates were transferred into tubes, which were measured for radioactivity in a γ-counter (Wallac Wizard, Perkin Elmer, Waltham, MA, USA). […]

[4] = tested on: HT-29 cells; settings: cited from earlier work
[5] = target: NTSR1; design: method as in PMID 33268796; settings: cited from earlier work
[6] = target: NTSR2; design: method as in PMID 33268796; settings: cited from earlier work

Ki [1]: 0.3 nM and 0.32 nM | Ki [2]: 85 ± 13 nM
Compound: COc1cccc(OC)c1-c1cc(C(=O)NC2(C(=O)O)C3CC4CC(C3)CC2C4)nn1-c1ccc(-c2cn(CCCN(C)CCCNC(=O)CCn3cc(CC(N)C(=O)O)nn3)nn2)cc1C(C)C (centres unmarked) [Compound 6, 2-(1-(4-(1-(3-((3-(3-(4-(2-Amino-2-carboxyethyl)-1H-1,2,3-triazol-1-yl)-propanamido)propyl)(methyl)amino)propyl)-1H-1,2,3-triazol-4-yl)-2-isopropylphenyl)-5-(2,6-dimethoxyphenyl)-1H-pyrazole-3-carboxamido)adamantane-2-carboxylic Acid]

Ki [1]: 1.9 ± 0.7 nM | Ki [2]: 100 ± 3 nM | IC50 ([3]; radiotracer [99mTc]1, read-out: IC50 of FAUC468 for the displacement of [99mTc]1): 1.93 nM | IC50 ([3]; radiotracer [99mTc]2, read-out: IC50 of FAUC468 for the displacement of [99mTc]2): 3.12 nM
Compound: COc1cccc(OC)c1-c1cc(C(=O)NC2(C(=O)O)C3CC4CC(C3)CC2C4)nn1-c1ccc(-c2cn(CCCN(C)CCCNC(=O)CN3CCN(CC(=O)O)CCN(CC(=O)O)CCN(CC(=O)O)CC3)nn2)cc1C(C)C (centres unmarked) [FAUC468]

Ki [2]: 270 ± 94 nM
Compound: COc1cccc(OC)c1-c1cc(C(=O)NC2(C(=O)O)C3CC4CC(C3)CC2C4)nn1-c1ccc(-c2cn(CCCN(C)CCCNC(=O)c3ccc(NN)nc3)nn2)cc1C(C)C (centres unmarked) [Compound 5, 2-(5-(2,6-Dimethoxyphenyl)-1-(4-(1-(3-((3-(6-hydrazineylnicotinamido)propyl)-(methyl)amino)propyl)-1H-1,2,3-triazol-4-yl)-2-isopropylphenyl)-1H-pyrazole-3-carboxamido)-adamantane-2-carboxylic Acid]

Continued, compound first:

Compound: COc1cccc(OC)c1-c1cc(C(=O)NC2(C(=O)O)C3CC4CC(C3)CC2C4)nn1-c1ccc(C(=O)N(C)CCCN(C)C)cc1C(C)C (centres unmarked) [SR 142948A]
IC50 [4]: 0.32 nM

Compound: NTS: 13-amino-acid peptide originally isolated from bovine hypothalami
Ki [5]: 0.15 to 0.5 nM | Ki [6]: 5 to 7 nM

Compound: COc1cccc(OC)c1-c1cc(C(=O)NC2(C(=O)O)C3CC4CC(C3)CC2C4)nn1-c1ccnc2cc(Cl)ccc12 (centres unmarked) [SR 48692]
IC50 ([4]; [125I-Tyr3]NT(8-13) as radioligand): 30 nM

Reference: publication PMC12196348, “^99mTc-Labeled Diarylpyrazoles for Single-Emission Computer Tomography Imaging of Neurotensin Receptor-Positive Tumors: A Comparative Preclinical Study” (Pharmaceutics, 2025)
